According to PubChem BioAssay AID1963867 (Molecular Pharmacology Branch, DTP, NCI, 2024):

System: KRAS-mutant PDC tumor spheroid with HUVEC/MSC, viability
Assay: Anticancer human tumor 327498-153-R-J2-PDC patient-derived uterine carcinosarcoma cell line growth inhibition [KRAS2]
Conditions: for IC50: curve of first compound; for viability, T/C: stronger effect = lower value
In short: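 Combination screen of spheroid viability in tumor-cell co-cultures with endothelial (HUVEC) and mesenchymal stem cell stroma. Each agent was tested in half-log dilutions, topping at clinical Cmax or at 10 microM without a known Cmax.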

[1] = second compound 0.1 µM, first compound 0.0316 µM
[2] = second compound 0.1 µM, first compound 0.1 µM
[3] = second compound 0.1 µM, first compound 0.316 µM
[4] = second compound 0.1 µM, first compound 1 µM
[5] = second compound 0.1 µM, first compound 3.16 µM
[6] = second compound 0.1 µM, first compound 10 µM
[7] = second compound 0.316 µM, first compound 0.0316 µM
[8] = second compound 0.316 µM, first compound 0.1 µM
[9] = second compound 0.316 µM, first compound 0.316 µM
[10] = second compound 0.316 µM, first compound 1 µM
[11] = second compound 0.316 µM, first compound 3.16 µM
[12] = second compound 0.316 µM, first compound 10 µM
[13] = second compound 1 µM, first compound 0.0316 µM
[14] = second compound 1 µM, first compound 0.1 µM
[15] = second compound 1 µM, first compound 0.316 µM
[16] = second compound 1 µM, first compound 1 µM
[17] = second compound 1 µM, first compound 3.16 µM
[18] = second compound 1 µM, first compound 10 µM
[19] = second compound 3.16 µM, first compound 0.0316 µM
[20] = second compound 3.16 µM, first compound 0.1 µM
[21] = second compound 3.16 µM, first compound 0.316 µM
[22] = second compound 3.16 µM, first compound 1 µM
[23] = second compound 3.16 µM, first compound 3.16 µM
[24] = second compound 3.16 µM, first compound 10 µM
[25] = second compound 10 µM, first compound 0.0316 µM
[26] = second compound 10 µM, first compound 0.1 µM
[27] = second compound 10 µM, first compound 0.316 µM
[28] = second compound 10 µM, first compound 1 µM
[29] = second compound 10 µM, first compound 3.16 µM
[30] = second compound 10 µM, first compound 10 µM
[31] = second compound 0.1 µM, first compound 0.000316 µM
[32] = second compound 0.1 µM, first compound 0.001 µM
[33] = second compound 0.1 µM, first compound 0.00316 µM
[34] = second compound 0.1 µM, first compound 0.01 µM
[35] = second compound 0.316 µM, first compound 0.000316 µM
[36] = second compound 0.316 µM, first compound 0.001 µM
[37] = second compound 0.316 µM, first compound 0.00316 µM
[38] = second compound 0.316 µM, first compound 0.01 µM
[39] = second compound 1 µM, first compound 0.000316 µM
[40] = second compound 1 µM, first compound 0.001 µM
[41] = second compound 1 µM, first compound 0.00316 µM
[42] = second compound 1 µM, first compound 0.01 µM
[43] = second compound 3.16 µM, first compound 0.000316 µM
[44] = second compound 3.16 µM, first compound 0.001 µM
[45] = second compound 3.16 µM, first compound 0.00316 µM
[46] = second compound 3.16 µM, first compound 0.01 µM
[47] = second compound 10 µM, first compound 0.000316 µM
[48] = second compound 10 µM, first compound 0.001 µM
[49] = second compound 10 µM, first compound 0.00316 µM
[50] = second compound 10 µM, first compound 0.01 µM
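Further: spheroids exposed to agents for seven days before reading.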
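Wherever viability, T/C is given: 100% = DMSO vehicle wells so lower means fewer viable cells.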

| SMILES | IC50 (second compound 0.1 µM) | IC50 (second compound 0.316 µM) | IC50 (second compound 1 µM) | IC50 (second compound 3.16 µM) | IC50 (second compound 10 µM) | viability, T/C [1] | viability, T/C [2] | viability, T/C [3] | viability, T/C [4] | viability, T/C [5] | viability, T/C [6] | viability, T/C [7] | viability, T/C [8] | viability, T/C [9] | viability, T/C [13] | viability, T/C [14] | viability, T/C [19] | viability, T/C [20] | viability, T/C [25] | viability, T/C [26] | also measured |
| --- | --- | --- | --- | --- | --- | --- | --- | --- | --- | --- | --- | --- | --- | --- | --- | --- | --- | --- | --- | --- | --- |
| CC(C)NCC(C(=O)N1CCN(c2ncnc3c2C(C)CC3O)CC1)c1ccc(Cl)cc1 (stereo not given) + CNCc1ccccc1-c1csc(C(C)Nc2nc(C)nc3cc(OC)c(OC)cc23)c1 | 0.216 µM | 0.147 µM | 0.115 µM | < 0.0316 µM | < 0.0316 µM | 77.9% | 55.6% | 45% | 34.7% | 26.4% | 15% | 63.6% | 55.1% | 40.9% | 66.3% | 52.5% | 0.12% | 0.09% | 0.23% | 0.44% | viability, T/C [10]: 27.5%; viability, T/C [11]: 22.1%; viability, T/C [12]: 14.6%; viability, T/C [15]: 36.1%; viability, T/C [16]: 24.6%; viability, T/C [17]: 18.2%; viability, T/C [18]: 11.5%; viability, T/C [21]: 0.09%; viability, T/C [22]: 0.07%; viability, T/C [23]: 0.3%; viability, T/C [24]: 0.16%; viability, T/C [27]: 0.16%; viability, T/C [28]: 0.16%; viability, T/C [29]: 0.16%; viability, T/C [30]: 0.23% |
| CC(C)n1nc(-c2ccc3oc(N)nc3c2)c2c(N)ncnc21 + CNCc1ccccc1-c1csc(C(C)Nc2nc(C)nc3cc(OC)c(OC)cc23)c1 | 0.00487 µM | 0.00421 µM | 0.0023 µM | < 0.000316 µM | < 0.000316 µM | 13.8% | 7.32% |  |  |  |  | 10.3% | 6.25% |  | 7.89% | 4.25% | 0.04% | 1.36% | 0.24% | 0.39% | viability, T/C [31]: 87.6%; viability, T/C [32]: 80.3%; viability, T/C [33]: 59.9%; viability, T/C [34]: 33.4%; viability, T/C [35]: 76.8%; viability, T/C [36]: 73.2%; viability, T/C [37]: 56%; viability, T/C [38]: 30.4%; viability, T/C [39]: 68.2%; viability, T/C [40]: 63.9%; viability, T/C [41]: 43.4%; viability, T/C [42]: 25.6%; viability, T/C [43]: 20.1%; viability, T/C [44]: 0.14%; viability, T/C [45]: 1.09%; viability, T/C [46]: 0.2%; viability, T/C [47]: 0.49%; viability, T/C [48]: 0.14%; viability, T/C [49]: 0.93%; viability, T/C [50]: 0.51% |
| CC1(C)CCC(CN2CCN(c3ccc(C(=O)NS(=O)(=O)c4ccc(NCC5CCOCC5)c([N+](=O)[O-])c4)c(Oc4cnc5[nH]ccc5c4)c3)CC2)=C(c2ccc(Cl)cc2)C1 + CNCc1ccccc1-c1csc(C(C)Nc2nc(C)nc3cc(OC)c(OC)cc23)c1 | 3.28 µM | 2.71 µM | 1.93 µM | < 0.0316 µM | < 0.0316 µM | 90.5% | 78.1% | 79.4% | 77.5% | 50.8% | 13.7% | 84.3% | 79.5% | 73.2% | 72.5% | 72.8% | 1.08% | 0.13% | 0.41% | 0.15% | viability, T/C [10]: 76.4%; viability, T/C [11]: 46%; viability, T/C [12]: 9.74%; viability, T/C [15]: 71.3%; viability, T/C [16]: 72.3%; viability, T/C [17]: 33.2%; viability, T/C [18]: 1.07%; viability, T/C [21]: 0.22%; viability, T/C [22]: 0.13%; viability, T/C [23]: 0.09%; viability, T/C [24]: 0.25%; viability, T/C [27]: 0.26%; viability, T/C [28]: 0.14%; viability, T/C [29]: 0.16%; viability, T/C [30]: 0.23% |
| Cn1ncnc1[C@H]1c2n[nH]c(=O)c3cc(F)cc(c23)N[C@@H]1c1ccc(F)cc1 + CNCc1ccccc1-c1csc(C(C)Nc2nc(C)nc3cc(OC)c(OC)cc23)c1 | 0.0184 µM | 0.0107 µM | 0.00581 µM | < 0.000316 µM | < 0.000316 µM | 38% | 19.7% |  |  |  |  | 28.2% | 19.9% |  | 30.9% | 21.7% | 0.06% | 0.15% | 0.16% | 0.34% | viability, T/C [31]: 84%; viability, T/C [32]: 81.7%; viability, T/C [33]: 81.6%; viability, T/C [34]: 62.9%; viability, T/C [35]: 72.8%; viability, T/C [36]: 70.2%; viability, T/C [37]: 61.7%; viability, T/C [38]: 54.4%; viability, T/C [39]: 63.2%; viability, T/C [40]: 68.8%; viability, T/C [41]: 53.7%; viability, T/C [42]: 44.5%; viability, T/C [43]: 0.09%; viability, T/C [44]: 0.09%; viability, T/C [45]: 0.1%; viability, T/C [46]: 0.07%; viability, T/C [47]: 0.12%; viability, T/C [48]: 0.11%; viability, T/C [49]: 0.12%; viability, T/C [50]: 0.12% |
